Data as given in paper PMC9848351, “Discovery of new pyridine-quinoline hybrids as competitive and non-competitive PIM-1 kinase inhibitors with apoptosis induction and caspase 3/7 activation capabilities” (Journal of Enzyme Inhibition and Medicinal Chemistry, 2023).

What was measured:
[1] = system: prostate cancer cell line (PC-3); assay: MTT anticancer activity, PC-3; assay type: cell-based, human; details: Homo sapiens, 72 h, PC-3, 72 h, mean ± SEM
Method in brief: (§1)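 Cells seeded at 5x10^3/well (Caco-2 in DMEM, others in RPMI-1640, 10% FBS) and exposed to serial compound concentrations for 72 h at 37 °C, 5% CO2, starting 24 h after seeding. MTT (3 h, 37 °C) read at 570 nm after DMSO solubilisation; IC50 calculated from viability.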

PC-3 = assay: Flow cytometric annexin V/PI analysis of apoptosis, PC-3; assay type: cell-based, human; details: IC50 of compound, 72 h, mean ± SEM
Procedure: The apoptosis-dependent […] was determined by quantification of annexin-stained apoptotic cells using the FITC signal detector (FL1) against the phycoerythrin emission signal detector (FL2) (Supplementary Page S55). […]
MTT method was used for assaying cell viability 25. Twenty microliters of 5 mg/ml MTT (Sigma, USA) was added to each well and the plate was incubated at […]
37 °C for 3 h. […]
Graphpad Instat software.
Determination of the anticancer activity
Anticancer effect of the above-mentioned compounds was evaluated using four human cancer cell lines. Colon cancer cells (Caco-2) were maintained in DMEM (Lonza, USA) containing 10% FBS while myeloid leukemia cell line (NFS-60), liver cancer cell line (HepG-2) and prostate cancer cell line (PC-3) were cultured in RPMI-1640 (Lonza, USA) supplemented with 10% FBS. All cancer cells (5x10^3 cells/well) were seeded in sterile 96-well plates. After 24h, serial concentrations of the tested compounds and Dox were incubated with four cancer cell lines for 72 h at 37 °C in 5% CO2 incubator. MTT method was done as described above. The Graphpad Instat software was used for calculating the half maximal inhibitory concentration (IC50) values. […]
Flow cytometric analysis of apoptosis
Caco-2, PC-3 and NFS-60 cell lines. After trypsinization, the untreated and treated cells were incubated with annexin V/PI for 15 min. Then cells were fixed and incubated with streptavidin-fluorescein (5 µg/mL) for 15 min. The apoptosis-dependent anticancer effect was determined by quantification of annexin-stained apoptotic cells using the FITC signal detector (FL1) against the phycoerythrin emission signal detector (FL2). […]

PIM-1 kinase = PIM-1 kinase (Homo sapiens, UniProt P11309); assay: PIM-1 kinase inhibitory activity (Promega kinase assay kit)
Source text: PIM-1 and PIM-2 kinase inhibitory activity
PIM-1 and PIM-2 kinase utilizing PIM-1 and PIM-2 Kinase Assay Kit – Promega Corporation catalog #V4032, following the manufacturer’s instructions 26

[2] = system: Colon cancer cells (Caco-2); assay: MTT anticancer activity, Caco-2; assay type: cell-based, human; details: for IC50: Homo sapiens, Caco-2, 72 h, MTT, mean ± SEM; for Caco-2 LE: ligand efficiency from IC50 and number of heavy atoms; for Caco-2 LLE: ligand lipophilic efficiency, potency in terms of lipophilicity; for Caco-2 SI: selectivity index, Wi-38 versus Caco-2
Method in brief: as §1

[3] = system: myeloid leukaemia cell line (NFS-60); assay: MTT anticancer activity, NFS-60; assay type: cell-based; details: for IC50: NFS-60, 72 h, MTT, mean ± SEM; for activity against NFS-60 compared to the reference: fold versus doxorubicin IC50
Method in brief: as §1

Chain of PIM-1 kinase (P11309 whole entry): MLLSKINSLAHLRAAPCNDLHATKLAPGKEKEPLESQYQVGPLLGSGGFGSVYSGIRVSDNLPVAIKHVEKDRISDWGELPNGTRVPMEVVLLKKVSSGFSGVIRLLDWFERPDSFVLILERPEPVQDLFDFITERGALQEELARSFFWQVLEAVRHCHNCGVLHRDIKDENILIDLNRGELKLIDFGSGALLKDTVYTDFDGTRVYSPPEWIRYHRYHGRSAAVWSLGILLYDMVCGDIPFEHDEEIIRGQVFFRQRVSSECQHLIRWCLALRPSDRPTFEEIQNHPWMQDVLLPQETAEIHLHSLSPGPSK

| SMILES | IC50 [1] [µM] | IC50 (PIM-1 kinase) [µM] | IC50 [2] [µM] | Caco-2 LE [2] | Caco-2 LLE [2] | IC50 [3] [µM] | total percentage of the apoptotic cell population, PC-3 (PC-3) [%] | Caco-2 SI [2] | activity against NFS-60 compared to the reference [3] |
| --- | --- | --- | --- | --- | --- | --- | --- | --- | --- |
| COc1ccc2nc(N3CCOCC3)c(-c3cc(-c4cccc(O)c4)[nH]c(=O)c3C#N)cc2c1 [5c, 6-(3-Hydroxyphenyl)-4-(6-methoxy-2-morpholin-4-yl-quinolin-3-yl)-2-oxo-1,2-dihydropyridine-3-carbonitrile] | 0.0272 ± 0.003 |  | 0.0361 ± 0.0001 | 0.30 | 4.00 | 0.0181 ± 0.001 | 47.26 ± 0.92 | 19.861 |  |
| COc1ccc2[nH]c(=O)c(-c3cc(-c4cccc(O)c4)[nH]c(=O)c3C#N)cc2c1 [13c, 6-(3-Hydroxyphenyl)-4-(6-methoxy-2-oxo-1,2-dihydroquinolin-3-yl)-2-oxo-1,2-dihydropyridine-3-carbonitrile] | 0.0225 ± 0.002 | 7.78 | 0.0337 ± 0.006 | 0.35 | 5.11 | 0.0088 ± 0.0001 | 57.91 ± 0.34 | 1.033 | three-fold high |
| N#Cc1c(-c2cc3cc(Cl)ccc3nc2N2CCOCC2)cc(-c2cccc(O)c2)[nH]c1=O [5b, 4-(6-Chloro-2-morpholin-4-yl-quinolin-3-yl)-6-(3-hydroxyphenyl)-2-oxo-1,2-dihydropyridine-3-carbonitrile] | 0.0261 ± 0.004 |  | 0.0453 ± 0.001 | 0.30 | 3.28 | 0.00932 ± 0.004 | 50.7 ± 0.58 | 3.775 |  |

The next molecules have a lower IC50 [1] than those just listed; values first:

| IC50 [1] [µM] | IC50 (PIM-1 kinase) [µM] | IC50 [2] [µM] | Caco-2 LE [2] | Caco-2 LLE [2] | IC50 [3] [µM] | SMILES | total percentage of the apoptotic cell population, PC-3 (PC-3) [%] | Caco-2 SI [2] | activity against NFS-60 compared to the reference [3] |
| --- | --- | --- | --- | --- | --- | --- | --- | --- | --- |
| 0.02 ± 0.003 | 1.27 | 0.0228 ± 0.001 | 0.39 | 5.31 | 0.009 | N#Cc1c(-c2cc3ccccc3[nH]c2=O)cc(-c2cccc(O)c2)[nH]c1=O [13a, 6-(3-Hydroxyphenyl)-2-oxo-4-(2-oxo-1,2-dihydroquinolin-3-yl)-1,2-dihydropyridine-3-carbonitrile] | 59.71 ± 0.82 | 1.118 | three-fold |
| 0.0168 ± 0.0001 | 0.385 | 0.0141 ± 0.004 | 0.40 | 5.18 | 0.0232 | N#Cc1c(-c2cc3ccccc3[nH]c2=O)cc(-c2cccc(O)c2)nc1S [14a, 6-(3-Hydroxyphenyl)-2-mercapto-4-(2-oxo-1,2-dihydroquinolin-3-yl)pyridine-3-carbonitrile] | 56.545 ± 0.98 | 21.206 |  |
